Laboratory results published in PubChem BioAssay (NCI).
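Interpolation was linear, between the two tested concentrations surrounding the appropriate level; five concentrations were tested over 48 hours in 96-well plates. The concentration for 50% growth inhibition is given as GI50. TGI is the concentration that stops growth completely.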

Assays:
Test in all cases: inhibition of tumour cell growth, NCI panel, 48 h
[1] = tested on: A498 renal
[2] = tested on: NCI-H522 lung
[3] = tested on: MCF7 breast
[4] = tested on: HCT-116 colon
[5] = tested on: SW-620 colon
[6] = tested on: EKVX NSCLC
[7] = tested on: SF-268 CNS
[8] = tested on: OVCAR-3 ovarian
[9] = tested on: IGROV1 ovarian
[10] = tested on: SNB-19 CNS

SMILES	GI50 [1]	TGI [1]	GI50 [2]	TGI [2]	GI50 [3]	TGI [3]	GI50 [4]	TGI [4]	GI50 [5]	TGI [5]	GI50 [6]	TGI [6]	GI50 [7]	TGI [7]	GI50 [8]	TGI [8]	GI50 [9]	TGI [9]	GI50 [10]	TGI [10]
Cc1cc(Nc2cc(N)ncn2)c(=O)n2c1C(=O)NC21CCCCC1	50.7 µM	> 100 µM	> 100 µM	> 100 µM	> 100 µM	> 100 µM	> 100 µM	> 100 µM	> 100 µM	> 100 µM	> 100 µM	> 100 µM	76.9 µM	> 100 µM	> 100 µM	> 100 µM	46.7 µM	> 100 µM	> 100 µM	> 100 µM
CCCCCCCCCCCCCCCCCC(=O)Nc1ccn(C2OC(CO)C(O)C2O)c(=O)n1 (stereo not given)	–	99 µM	–	75.4 µM	–	> 100 µM	–	> 100 µM	–	> 100 µM	–	> 100 µM	–	> 100 µM	–	69.6 µM	–	> 100 µM	–	69.7 µM
CCN(CC)c1ccc(/C=C/C=C2\NC(=O)NC2=O)cc1	1.26 µM	6.55 µM	0.92 µM	4.11 µM	3.77 µM	> 100 µM	1.6 µM	30.6 µM	3.77 µM	> 100 µM	3.77 µM	> 100 µM	8.51 µM	> 100 µM	1.95 µM	5.29 µM	3.57 µM	> 100 µM	16.1 µM	> 100 µM
O=C(NC(=O)c1ccccc1[N+](=O)[O-])Nc1ccc(Oc2ncc(Cl)cn2)c(C(F)(F)F)c1	–	1.29 µM	–	0.16 µM	–	> 52.2 µM	–	27.3 µM	–	> 11.9 µM	–	> 100 µM	–	38.4 µM	–	0.838 µM	–	> 100 µM	–	85.7 µM
Cc1c([N+](=O)[O-])oc2ccc3ccccc3c12	–	> 100 µM	–	41.9 µM	–	93.7 µM	–	34.2 µM	–	> 100 µM	–	> 100 µM	–	> 100 µM	–	> 100 µM	–	> 100 µM	–	> 100 µM
Cc1ccc([C@]2(C)CC[C@H](C)/C2=C\Br)c(O)c1	5.31 µM	20.3 µM	3.24 µM	12 µM	4.52 µM	17.9 µM	2.88 µM	9.33 µM	3.98 µM	16.2 µM	5.74 µM	17.7 µM	6.18 µM	21.7 µM	3.23 µM	12.2 µM	3.07 µM	12.4 µM	4.6 µM	18.9 µM
O=C(NC(=S)Nc1cc(Cl)ccc1O)c1cccc(Br)c1	4.8 µM	51.9 µM	6.65 µM	> 100 µM	2.11 µM	> 100 µM	10.8 µM	> 100 µM	4.77 µM	> 100 µM	17.1 µM	> 100 µM	7.83 µM	> 100 µM	4.72 µM	24.9 µM	9.67 µM	> 100 µM	8.78 µM	> 100 µM
